Assays:
[1] = Plasma pharmacokinetics after intravenous injection; format: in vivo, mouse; set-up: distribution volume: unit not given here; settings: female Swiss nude mice, 2 nmol/animal
Procedure: In female Swiss nude mice (N=18), the compound of Example 3 solubilized to 10 nmol/ml in 0.9% NaCl solution is injected intravenously (200 μl) into the caudal vein. Blood is collected at various times (5 and 30 minutes then 2, 4, 8 and 24 hours; 3 mice/sample time) and, after centrifugation, the supernatant plasma is transferred to heparinized tubes. The sample is then diluted in 50 μl of a 20 mM ammonium formate/acetonitrile/formic acid 50/50/0.1 buffer mixture to be analyzed by UPLC-MS/MS, ESI+.

[2] = tested on: A549 human lung adenocarcinoma model; assay: Targeting of heterotopically-transplanted tumors, fluorescence imaging; format: in vivo, mouse; settings: A549 xenograft in Swiss nude mice, 2 nmol i.v., t24h
Procedure: (§1) In the right rear paw of Swiss nude mice (N=12), 1 to 2×10^6 tumor cells are inoculated subcutaneously, forming a group of 3 mice for each tumor cell line (A549 human lung adenocarcinoma model; H460 human lung carcinoma model; HCT116 human colorectal carcinoma model; U87MG human glioblastoma model).
(§2) When the tumors reach a volume of between 0.5 and 1 cm, the compound of Example 3 (200 μl) solubilized at 10 nmol/ml in phosphate buffer solution (PBS) is injected intravenously.
(§3) Under gas anesthesia, 5 acquisitions are carried out at various times of the experiment (2, 4, 6, 8 and 24 hours) using a Caliper IVIS Lumina II apparatus (ex=680 nm; em=720 nm). In parallel, blood samples are taken.
(§4) After the animals are euthanized by cervical dislocation, the organs (kidney, liver, spleen, lung, tumor, blood, muscle, heart, intestine) are taken and ex vivo acquisition is carried out (Lumina II: ex=680 nm; em=720 nm).

[3] = tested on: H460 human lung carcinoma model; assay: as above; format: in vivo, mouse; settings: H460 xenograft in Swiss nude mice, 2 nmol i.v., t24h
Procedure: as §1, §2, §3, §4

[4] = tested on: HCT116 human colorectal carcinoma model; assay: as above; format: in vivo, mouse; settings: HCT116 xenograft in Swiss nude mice, 2 nmol i.v., t24h
Procedure: as §1, §2, §3, §4

[5] = tested on: U87MG human glioblastoma model; assay: as above; format: in vivo, mouse; settings: U87MG xenograft in Swiss nude mice, 2 nmol i.v., t24h
Procedure: as §1, §2, §3, §4

[6] = tested on: A549, H460, HCT116, U87MG tumors; assay: Tumor fixation kinetics and ex vivo biodistribution, results stated across the tumor models; format: in vivo, mouse
Procedure: as §1, §2, §3, §4

[7] = tested on: K-rasLA1 murine model spontaneously developing bronchioloalveolar carcinoma; assay: Targeting of spontaneous tumors, ex vivo lung fluorescence; format: in vivo, mouse; settings: K-rasLA1 mice, 200 μl at 10 nmol/ml i.v.
Procedure: On the K-rasLA1 murine model spontaneously developing bronchioloalveolar carcinoma, tumor development is controlled by X-ray scanner synchronized on respiration before injection of the product to be tested. The compound of Example 3 (200 μl) solubilized at 10 nmol/ml in phosphate buffer solution (PBS) is then injected intravenously.
After the animals are euthanized, the lungs are taken to be fixed by tracheal injection of neutral formalin. Acquisition of fluorescence ex vivo is carried out using a Caliper IVIS Lumina II apparatus (ex=680 nm; em=720 nm). A photograph of the excised lung is also taken.

[8] = tested on: U87MG (human glioblastoma) tumor cells; assay: Interaction with tumor development, bioluminescence; format: in vivo
Procedure: In the right rear paw of Swiss nude mice (N=12), 3×10^6 U87MG (human glioblastoma) tumor cells are inoculated subcutaneously. When the tumor reaches a volume of 0.5 cm, luciferin (2 mg/mouse) is injected intraperitoneally in order to carry out bioluminescence acquisition and quantification at D0.
The animals are divided into 3 groups of 4 to form a control group with no injection; a group receiving a single intravenous injection of the compound of Example 3 (2 nmol in 200 μl); and a group receiving a weekly intravenous injection for 4 weeks of the compound of Example 3 (2 nmol in 200 μl). Lastly, bioluminescence acquisition and quantification are carried out 3 times per week after the intraperitoneal injection of luciferin.

- distribution volume [1]: 1
- half-life ([1]; mouse, plasma): 15 h
- clearance ([1]; mouse, plasma, read-out: plasma clearance rate): 0.8 mL/min/kg
SMILES: CC[N+]1=C(/C=C/C=C/C=C2/N(CCCCCC(=O)NCc3ccc4c(c3)Cc3cc(OCCCNc5cc(C)ccn5)ccc3CC4CC(=O)O)c3ccc4c(S(=O)(=O)O)cc(S(=O)(=O)O)cc4c3C2(C)C)C(C)(C)c2c1ccc1c(S(=O)(=O)O)cc(S(=O)(=O)O)cc21 (centres unmarked) [Example 3, Cy™ 5.5 Conjugate of the Compound of Preparation 1]
- tumor/healthy tissue ratio [2]: 2.3
- tumor/healthy tissue ratio [3]: 1.66
- tumor/healthy tissue ratio [4]: 2
- tumor/healthy tissue ratio [5]: 3.5
- biodistribution in the principal organs ([6]; ex vivo, 24 hours after injection): high specificity of the probe for the tumor
- signal of tumor volume relative to muscle tissue ([6]; ex vivo, 24 hours after injection, on average): 12 times
- tumor/kidney ratio ([6]; ex vivo, t24h): 2
- visibility of targeted tumors by fluorescence imaging ([6]; whatever cancer line, 2 nmol i.v., 24 hours post-injection): clearly visible
- targeting of neoplastic lesions formed in situ [7]: strong potential of targeting
- tumor growth by bioluminescence ([8]; U87MG in Swiss nude mice, control, single i.v. injection, or weekly i.v. injection for 4 weeks, 2 nmol): identical for the three groups
- anti- or pro-angiogenic effect ([8]; single or multiple injections, 2 nmol/mouse): No anti- or pro-angiogenic effect is observed

Reference: patent publication US9278143B2, “Imaging agents, process for the preparation thereof and pharmaceutical compositions containing same” (CENTRE NATIONAL DE LA RECHERCHE SCIENTIFIQUE (CNRS), priority 2011, dated 2016)
